Data from ChEMBL document CHEMBL3779863, “Ionic liquid-promoted one-pot synthesis of thiazoleimidazo[2,1-b][1,3,4]thiadiazole hybrids and their antitubercular activity” (Medchemcomm, 2016).
In brackets after ≈: the same amount, converted by molar mass.

Experiments:
Escherichia coli = assay: Antibacterial activity against Escherichia coli ATCC 25922 after 12 hrs by serial plate dilution method; format: functional; conditions: ATCC 25922, 12 h
Staphylococcus aureus = assay: Antibacterial activity against Staphylococcus aureus ATCC 25923 after 12 hrs by serial plate dilution method; format: functional; conditions: ATCC 25923, 12 h
Pseudomonas aeruginosa = assay: Antibacterial activity against Pseudomonas aeruginosa ATCC 27853 after 12 hrs by serial plate dilution method; format: functional; conditions: ATCC 27853, 12 h
[1] = Cytotoxicity against mouse NIH/3T3 cells assessed as cell growth inhibition at 50 ug/mL after 48 hrs by MTT assay; format: cell-based, NIH3T3; conditions: read-out: GI
[2] = test system: Mycobacterium tuberculosis; assay: Antimycobacterial activity against Mycobacterium tuberculosis H37Rv after 5 days by fluorescence analysis; format: functional; conditions: 120 h

Row | Structure (SMILES) | MIC (Escherichia coli) | MIC (Staphylococcus aureus) | MIC (Pseudomonas aeruginosa) | inhibition at 48 h, 50 ug/mL [1] | MIC [2]
1 | Cc1nn2c(/C=N/Nc3nc(-c4ccc(F)cc4)cs3)c(-c3ccc(Cl)cc3)nc2s1 | 25 µg/mL (≈ 53.3 µM) | 25 µg/mL (≈ 53.3 µM) | 50 µg/mL (≈ 107 µM) |  | 
2 | Cc1ccc(-c2nc3sc(C)nn3c2/C=N/Nc2nc(-c3ccc(Cl)cc3)cs2)cc1 | 50 µg/mL (≈ 108 µM) | 50 µg/mL (≈ 108 µM) | 50 µg/mL (≈ 108 µM) |  | 
3 | Cc1ccc(-c2csc(N/N=C/c3c(-c4ccc(C)cc4)nc4sc(C)nn34)n2)cc1 | 50 µg/mL (≈ 112 µM) | 50 µg/mL (≈ 112 µM) | 25 µg/mL (≈ 56.2 µM) |  | 
4 | COc1ccc(-c2csc(N/N=C/c3c(-c4ccc(OC)cc4)nc4sc(C(F)(F)F)nn34)n2)cc1 | 12.5 µg/mL (≈ 23.6 µM) | 25 µg/mL (≈ 47.1 µM) | 25 µg/mL (≈ 47.1 µM) |  | 
5 | COc1ccc(-c2csc(N/N=C/c3c(-c4ccc(C)cc4)nc4sc(C)nn34)n2)cc1 | 50 µg/mL (≈ 109 µM) | 50 µg/mL (≈ 109 µM) | 25 µg/mL (≈ 54.3 µM) |  | 
6 | Fc1ccc(-c2csc(N/N=C/c3c(-c4ccc(Cl)cc4)nc4sc(C(F)(F)F)nn34)n2)cc1 | 6.25 µg/mL (≈ 12 µM) | 12.5 µg/mL (≈ 23.9 µM) | 6.25 µg/mL (≈ 12 µM) | 15.9% | 
7 | Cc1ccc(-c2csc(N/N=C/c3c(-c4ccc(Cl)cc4)nc4sc(C)nn34)n2)cc1 | 50 µg/mL (≈ 108 µM) | 50 µg/mL (≈ 108 µM) | 50 µg/mL (≈ 108 µM) |  | 
8 | COc1ccc(-c2nc3sc(C(F)(F)F)nn3c2/C=N/Nc2nc(-c3ccc(C)cc3)cs2)cc1 | 25 µg/mL (≈ 48.6 µM) | 50 µg/mL (≈ 97.2 µM) | 25 µg/mL (≈ 48.6 µM) | 18.4% | 
9 | COc1ccc(-c2nc3sc(C(F)(F)F)nn3c2/C=N/Nc2nc(-c3ccc(F)cc3)cs2)cc1 | 50 µg/mL (≈ 96.4 µM) | 50 µg/mL (≈ 96.4 µM) | 25 µg/mL (≈ 48.2 µM) | 18.9% | 
10 | Cc1ccc(-c2nc3sc(C)nn3c2/C=N/Nc2nc(-c3ccc(F)cc3)cs2)cc1 | 50 µg/mL (≈ 111 µM) | 50 µg/mL (≈ 111 µM) | 50 µg/mL (≈ 111 µM) | 22.3% | 
11 | COc1ccc(-c2csc(N/N=C/c3ccc4c(c3)c3ccccc3n4C)n2)cc1OC |  |  |  |  | 21 µM (≈ 9.29 µg/mL)
12 | COc1ccc(-c2nc3sc(C)nn3c2/C=N/Nc2nc(-c3ccc([N+](=O)[O-])cc3)cs2)cc1 | 25 µg/mL (≈ 50.9 µM) | 25 µg/mL (≈ 50.9 µM) | 25 µg/mL (≈ 50.9 µM) |  | 
13 | COc1ccc(-c2nc3sc(C)nn3c2/C=N/Nc2nc(-c3ccc(C)cc3)cs2)cc1 | 50 µg/mL (≈ 109 µM) | 50 µg/mL (≈ 109 µM) | 50 µg/mL (≈ 109 µM) |  | 
14 | Cc1ccc(-c2nc3sc(C)nn3c2/C=N/Nc2nc(-c3ccc([N+](=O)[O-])cc3)cs2)cc1 | 6.25 µg/mL (≈ 13.1 µM) | 12.5 µg/mL (≈ 26.3 µM) | 12.5 µg/mL (≈ 26.3 µM) | 23.3% | 
15 | O=[N+]([O-])c1ccc(-c2csc(N/N=C/c3c(-c4ccc(Cl)cc4)nc4sc(C(F)(F)F)nn34)n2)cc1 | 12.5 µg/mL (≈ 22.7 µM) | 12.5 µg/mL (≈ 22.7 µM) | 25 µg/mL (≈ 45.5 µM) |  | 
16 | COc1ccc(-c2csc(N/N=C/c3c(-c4ccc(OC)cc4)nc4sc(C)nn34)n2)cc1 | 12.5 µg/mL (≈ 26.2 µM) | 50 µg/mL (≈ 105 µM) | 50 µg/mL (≈ 105 µM) |  | 
17 | COc1ccc(-c2nc3sc(C)nn3c2/C=N/Nc2nc(-c3ccc(F)cc3)cs2)cc1 | 50 µg/mL (≈ 108 µM) | 50 µg/mL (≈ 108 µM) | 50 µg/mL (≈ 108 µM) |  | 
18 | COc1ccc(-c2csc(N/N=C/c3c(-c4ccc(Cl)cc4)nc4sc(C)nn34)n2)cc1 | 25 µg/mL (≈ 52 µM) | 50 µg/mL (≈ 104 µM) | 50 µg/mL (≈ 104 µM) | 20.8% | 
19 | FC(F)(F)c1nn2c(/C=N/Nc3nc(-c4ccc(Cl)cc4)cs3)c(-c3ccc(Cl)cc3)nc2s1 | 12.5 µg/mL (≈ 23.2 µM) | 12.5 µg/mL (≈ 23.2 µM) | 50 µg/mL (≈ 92.7 µM) |  | 
20 | COc1ccc(-c2nc3sc(C(F)(F)F)nn3c2/C=N/Nc2nc(-c3ccc(Cl)cc3)cs2)cc1 | 50 µg/mL (≈ 93.5 µM) | 50 µg/mL (≈ 93.5 µM) | 50 µg/mL (≈ 93.5 µM) |  | 
21 | Cc1nn2c(/C=N/Nc3nc(-c4ccc(Cl)cc4)cs3)c(-c3ccc(Cl)cc3)nc2s1 | 25 µg/mL (≈ 51.5 µM) | 25 µg/mL (≈ 51.5 µM) | 25 µg/mL (≈ 51.5 µM) |  | 
22 | COc1ccc(-c2csc(N/N=C/c3c(-c4ccc(Cl)cc4)nc4sc(C(F)(F)F)nn34)n2)cc1 | 12.5 µg/mL (≈ 23.4 µM) | 25 µg/mL (≈ 46.7 µM) | 25 µg/mL (≈ 46.7 µM) | 14.7% | 
23 | Cc1ccc(-c2csc(N/N=C/c3c(-c4ccc(Cl)cc4)nc4sc(C(F)(F)F)nn34)n2)cc1 | 25 µg/mL (≈ 48.2 µM) | 25 µg/mL (≈ 48.2 µM) | 25 µg/mL (≈ 48.2 µM) | 19.6% | 
24 | COc1ccc(-c2nc3sc(C)nn3c2/C=N/Nc2nc(-c3ccc(Cl)cc3)cs2)cc1 | 6.25 µg/mL (≈ 13 µM) | 12.5 µg/mL (≈ 26 µM) | 12.5 µg/mL (≈ 26 µM) | 12.7% | 
